Measured values published in patent US10111847B2, “Compounds and methods for modulating vascular injury” (The Regents of the University of California, priority 2012, dated 2018).

Legend:
NOX4 = experiment: TNFα induced NADPH-oxidase 4 expression, western blot; format: cell-based, human; details: 30 min pretreatment, TNFα 10 ng/ml 4 hr; sv-VSMCs
Procedure: Mar-1. VSMCs and ECs were lysed in buffer (20 mM Tris-Hcl, 137 mM NaCl, 10% Glycerol, 1% NP-40) with protease and phosphatase inhibitors (Halt inhibitor capsules, Pierce, Inc) by sonication on ice. The lysates were instantly snap frozen in liquid nitrogen and thawed back later for western blotting. After centrifugation (15,000 g for 20 minutes), the whole cell extract (supernatant) was collected and was heated at 100° C. in Laemlli buffer for 6 minutes. Lysates were run on Mini-Protean TGX gels
(Biorad) and transferred on PVDF membranes which were probed with appropriate primary and secondary antibodies and visualized for quantitation using q-dot nanocrystals (Life Technologies, Inc).
NADPH oxidases (NOX) are the dominant source of superoxide generation in blood vessels and have been strongly implicated in vascular injury. NOX4 is a dominant isoform bound in VSMC and blood vessels. Regulation of NOX4 expression and activity therefore is of interest. Human sv-VSMCs were pretreated with 7S-Maresin-1 or vehicle for 30 min, followed by TNFα at 10 ng/ml for 4 hr. Whole cell lysates were blotted for NOX4 (Abcam Inc.) and beta-actin (Sigma).
FIG. 14. NOX4 and beta-actin western blotting image is representative of three independent experiments. Bar graph represents net quantitative densitometry analysis. N=3. […]

[1] = test system: human saphenous vein vascular smooth muscle (sv-VSMC) cells; experiment: TNFα induced superoxide production (DHE) in sv-VSMC (Maresin-1); format: cell-based; details: 100 nM; TNFα 10 ng/ml 4 hr
Procedure: Mar-1. Cells were grown in 8-well chamber slides at a density of 15000 cells/well for 2 days for VSMCs and 50000 cells/well for 2 days for ECs in a 96 well plate. After treatments, cells were incubated with dihydroethidium (DHE, 3 μM, Invitrogen) or CellRox (Invitrogen Inc, 5 μM for ECs) in media for 30 minutes at 37° C. in a humidified chamber with 5% CO2 protected from light. DAPI nuclear counter staining was utilized for DHE staining. For DHE, fluorescence was detected with TRITC filter allowing the detection of the DHE emission wavelength of 590-620 nm. Fluorescence quantitation was performed using ImageJ analysis software. For ECs, fluorescence measurements were taken using a Spectramax M2e plate reader.
FIGS. 13A-13D. Representative merged images of DHE staining, counterstained with DAPI. (A), Negative control. (B), TNFα at 10 ng/ml for 4 hr. […] (E) Quantitative comparison of DHE staining intensity in the nucleus of human saphenous vein vascular smooth muscle (sv-VSMC) cells, treated with TNFα and 7S and 7R-Maresin-1 with and without pertussis toxin. (F) Quantitative comparison of cellular ROS production by CellRox (Life technologies, Carlsbad, Calif.) in human saphenous vein endothelial (EC) cells treated with TNFα (1 ng/nil) and 7S-Maresin-1 (N>=3). […]

CC/C=C\C/C=C\C[C@H](O)\C=C/C=C/C=C/[C@@H](O)C/C=C\CCC(=O)O [7S-Maresin-1, 7S,14R-dihydroxydocosa-4Z,8E,10Z,12Z,16Z,19Z-hexaenoic acid]
TNFα induced NADPH-oxidase 4 expression (NOX4): Attenuates | TNF-α-induced superoxide production in VSMC [1]: significantly reduced
